Measured values from patent publication US9090651B2, “Helix 12 directed pharmaceutical products” (ENDORECHERCHE, INC., priority 2004, dated 2015).
Like-named read-outs stand apart in the source and are kept apart here.

What was measured:
[1] = biological target: T1, Human Androgen Receptor (Homo sapiens, UniProt P10275); assay: Androgen receptor binding assay (hydroxylapatite, [3H]R1881, cytosol of transfected HEK-293 cells); settings: for Androgen Receptor Binding (%) Human RBA R1881 = 100: % RBA=100×IC50 R1881/IC50 compound, transfected cells; for RBA human: Table 4, relative to R1881
T1 sequence (P10275 1-920): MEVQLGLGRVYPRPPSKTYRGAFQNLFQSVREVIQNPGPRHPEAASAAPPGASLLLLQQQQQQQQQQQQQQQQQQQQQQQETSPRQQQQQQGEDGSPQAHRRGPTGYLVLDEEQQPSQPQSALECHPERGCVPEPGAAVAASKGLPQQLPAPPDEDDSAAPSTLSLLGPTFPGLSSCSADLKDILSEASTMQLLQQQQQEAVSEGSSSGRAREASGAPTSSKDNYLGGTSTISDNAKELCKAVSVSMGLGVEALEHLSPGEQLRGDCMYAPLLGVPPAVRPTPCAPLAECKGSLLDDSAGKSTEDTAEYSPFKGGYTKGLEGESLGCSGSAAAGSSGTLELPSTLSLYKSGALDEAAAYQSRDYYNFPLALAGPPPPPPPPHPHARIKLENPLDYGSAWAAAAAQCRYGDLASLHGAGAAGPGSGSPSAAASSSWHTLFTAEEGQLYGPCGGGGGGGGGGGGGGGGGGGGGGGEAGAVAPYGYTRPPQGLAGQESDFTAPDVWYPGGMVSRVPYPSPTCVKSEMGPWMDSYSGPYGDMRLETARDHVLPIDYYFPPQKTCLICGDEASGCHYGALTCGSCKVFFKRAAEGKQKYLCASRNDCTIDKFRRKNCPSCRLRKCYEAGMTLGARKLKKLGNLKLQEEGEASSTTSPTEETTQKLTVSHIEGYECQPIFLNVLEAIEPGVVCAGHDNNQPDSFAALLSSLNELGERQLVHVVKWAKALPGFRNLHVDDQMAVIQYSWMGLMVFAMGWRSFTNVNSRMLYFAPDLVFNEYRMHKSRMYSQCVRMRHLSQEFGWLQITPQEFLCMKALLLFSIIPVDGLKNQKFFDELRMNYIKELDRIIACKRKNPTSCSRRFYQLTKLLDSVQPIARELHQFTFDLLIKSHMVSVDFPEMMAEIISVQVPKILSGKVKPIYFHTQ

[2] = tested on: rat prostate; assay: Systemic antiandrogenic activity, orchidectomized immature male rats with DHT implant: prostate weight; format: in vivo; settings: for inhibition in vivo at 0.5 mg: Rattus norvegicus, 168 h
Experimental: (§1) Immature male rats (Crl:CD(SD)Br) 22 to 24-day old were obtained from Charles-River, Inc. (St-Constant, Quebec, Canada) and housed up to 5 per cage in plastic bins in a temperature (23±1° C.)- and light (12 h light/day, lights on at 7 h15)-controlled environment. The rats were fed rodent chow and tap water ad libitum. The day following their arrival, the animals were orchidectomized (CX) under Isoflurane anesthesia via scrotal route and randomly assigned to groups of 5 animals.
(§2) Compounds were solubilized (when possible) in dimethylsulfoxide (DMSO, 10% final concentration) and administered as suspension in 0.4% methylcellulose. […] One group of animals received the antiandrogen Flutamide as reference. The animals were killed by cervical dislocation under isoflurane anesthesia on the 8th morning following castration. The ventral prostate and seminal vesicles were rapidly dissected and weighed.
(§3) W is the weight of the prostate or the seminal vesicle.

[3] = tested on: ventral prostate, seminal vesicle and levator ani; assay: In vivo assessment of SARM effect on immature rats; design: species or system rat
Experimental: as §1
as §2, with “To evaluate the antiandrogenic activity, tested compounds were administered subcutaneously once daily at a dose of 0.5 mg/animal for antiandrogenitic activity or 0.2 mg/animal for androgenic activity for 7 days (SD 1 to 7). Compounds” for “Compounds”

[4] = tested on: rat seminal vesicle; assay: Systemic antiandrogenic activity, orchidectomized immature male rats with DHT implant: seminal vesicle weight; format: in vivo; settings: for inhibition in vivo at 0.5 mg: Rattus norvegicus, 168 h
Experimental: as §1, §2, §3

[5] = tested on: Shionogi mouse mammary carcinoma cells; assay: Androgenic/antiandrogenic activity on DHT-stimulated Shionogi cell growth; format: cell-based; settings: for IC50: Mus musculus; for Shionogi VS OH-FLU: Table 4, ratio of Ki hydroxyflutamide versus tested compound
[6] = tested on: sebaceous glands of the left ear; assay: Topical antiandrogenic activity, ear sebaceous glands model in the male hamster; format: in vivo; settings: Mesocricetus auratus, 336 h, 10 μg daily for 14 days, topical on left pinna, read-out: Antiandrogenic activity in Hamster Ear Area Inh Vs Cx (%)
Experimental: The antiandrogenic activity of compounds for topical use was determined using the ear sebaceous glands model in the male hamster.
Male Golden Syrian Hamsters (SYR) of 110-120 g were obtained from Harlan Sprague-Dawley (Madison, USA) and housed up to 2 per plastic cage in a temperature (22±3° C.) and light (12 h light/day, lights on at 7 h15)-controlled environment. The hamsters were fed with Certified Rodent Diet 5002 (pellet) and had access to tap water ad libitum. The animals were acclimatized for at least five days prior to beginning the study. Animals were randomly assigned to groups of eight hamsters. One group of hamsters were castrated under isoflurane-induced anesthesia on the day of dosing initiation (SD 1) and used as control group.
To evaluate the antiandrogenic activity, the tested compounds were applied topically on the inner part of the left ear, once daily, for 14 days. […] For animals of the castrated and intact control groups, one ten-μL vehicle was applied onto the left ear. No solution was applied on the right ear.
On Study Day 15, the hamsters were euthanized by cervical dislocation under isoflurane anesthesia. The left and right ears were collected attached together by the head skin, flat fixed on a paper and then immersed in 10% neutral buffered formalin. Punctures making a circular hole of 6 mm were made on the flat fixed ear in the region where the solution has been applied. These punch-made specimens were collected from each ear. Using a scalpel blade, the collected 6 mm round ear specimens were cut in the middle between the two cartilage ridges. The two equal parts of the ear round specimens were embedded in paraffin. After processing the tissue, the two parts were vertically embedded parallel to each other in such a way that the flat 6 mm area was facing out. From each paraffin block, one section (5 μm thick) was cut and collected on a glass slide. Thus, each slide contained two elongated sections of 6 mm length. Slides were stained with hematoxylin and eosin.
Using the video camera and the lens number X5 of the light microscope, the resulting field appearing on the screen has a length of 0.953 mm. When the first 6 mm long section was examined from the left to the right, the first and second fields were ignored and the third and fourth fields were captured for analysis by the image analyzer. Each field has the length of 0.953 mm. With the help of the screen mouse, the sebaceous glands within the whole field length (0.953 mm) were marked. Also, an area having the length of the whole field and the height between stratum granulosum and the upper edge of the cartilage was drawn.
The total area of the sebaceous glands (μm^2) in each examined field was calculated by the Image Analyser. We also measured the total area, which has the length of 0.953 mm and the height between stratum granulosum and the cartilage. In addition, the percentage of the area occupied by the glands was obtained. Thus, for each ear, two sections were cut and two fields from each section were analyzed. The total of the four readings was averaged and the mean standard error of the mean was calculated by the image analyzer. The results were expressed in μm^2 as the total surface of glands per field and also as percentage of the area occupied by the glands in the tissue.

[7] = 0.5 mg/day s.c., DHT 1-cm length implant
[8] = sc, read-out: IN VIVO Rat s.c. (+DHT) Prostate % inhibition, s.c., 0.5 mg/animal once daily for 7 days, +DHT
[9] = 0.2 mg/day s.c., absence of exogenous androgens, immature rats
[10] = sc, read-out: IN VIVO Rat s.c. (+DHT) SV % inhibition, s.c., 0.5 mg/animal once daily for 7 days, +DHT
[11] = read-out: Shionogi IC50 (nM), Table 4, inhibition of DHT-stimulated Shionogi cell number
[12] = po, 0.5 mg, per os, read-out: Prostate Rat Inh % inh (0.5 mg, per os)
[13] = po, 0.5 mg, per os, read-out: SV RAT Inh % inh (0.5 mg, per os)

Row | SMILES | Androgen Receptor Binding (%) Human RBA R1881 = 100 [1] | inhibition of the stimulated weight of ventral prostate [2, 7] | inhibition in vivo at 0.5 mg [2, 8] | stimulation of the weight of levator ani [3, 9] | stimulation of the weight of seminal vesicle [3, 9] | stimulation of the weight of ventral prostate [3, 9] | inhibition of the stimulated weight of levator ani [3, 7] | inhibition of the stimulated weight of seminal vesicle [4, 7] | inhibition in vivo at 0.5 mg [4, 10] | IC50 [5, 11] | Shionogi VS OH-FLU [5] | RBA human [1] | inhibition in vivo at 0.5 mg [2, 12] | inhibition in vivo at 0.01 mg [6] | inhibition in vivo at 0.5 mg [4, 13] | IC50 ([5]; read-out: Shionogi Antiandrogenic activity IC50 (nM), inhibition of DHT-stimulated Shionogi cell number) | IN VIVO Rat (+DHT) Prostate % inhibition (per os) ([2]; per os, +DHT) | Prostate Rat Inh % inh, s.c. ([2]; s.c.) | IN VIVO Rat (+DHT) SV % inhibition (per os) ([4]; per os, +DHT) | SV RAT Inh % inh, s.c. ([4]; s.c.)
1 | CC(NC1CCCC1)c1cccc(OCC[C@]23CCC4C5CCC(=O)C=C5C[C@H](C)C4C2CC[C@@]3(C)O)c1 (stereo in doubt) [EM-7216] | 77% | 28% | 28% | 238 | 200% | 370% | no inhibiting effect | no inhibiting effect | 0% |  |  |  |  |  |  |  |  |  |  | 
2 | CCC(NC1CCCC1)c1cccc(OCC[C@]23CCC4C(CCC5CC(=O)CC[C@@]54C)C2CC[C@@H]3OC)c1 (stereo partly drawn) [EM-6640] |  |  |  |  |  |  |  |  |  | 18 nM | 5.3 | 438% | 10% | 46.3% | 0% |  |  |  |  | 
3 | CCC(CC)N(C)C(CC)c1cccc(OCC[C@]23CCC4C5CCC(=O)C=C5CCC4C2CC[C@@H]3O)c1 (stereo partly drawn) [EM-6680] | 140% |  | 0% |  |  |  |  |  | 40% |  |  | 140% | 0% | 64.7% | 21% | 1.2 nM | 0 (p.o.) % | 0 s.c. 0% | 21% | 40%
4 | CCCC(NC(CC)CC)c1cccc(OCC[C@]23CCC4C(CCC5CC(=O)CC[C@@]54C)C2CCC3=O)c1 (stereo partly drawn) [EM-6842] |  |  |  |  |  |  |  |  |  | 0.4 nM | 183 | 451% | 18% | 63.8% | 27% |  |  |  |  | 
